The conditions of the data set: Crystal, Calculated from knudsen effusion weight loss.

SMILES strings stand for the structures. “And” between values parts separate entries of the source, which are not always exact repeats. Equal values may be shown once. ± gives the expanded uncertainty stated by the source.

For `Cc1ccc(-n2cccc2)cc1` [1-(4-methylphenyl)-1H-pyrrole], the “vapor or sublimation pressure” value is 0.00014 ± 7e-06 kPa and 0.000137 ± 7e-06 kPa (283.11 K); 0.000168 ± 8e-06 kPa and 0.000169 ± 8e-06 kPa and 0.000174 ± 9e-06 kPa (285.13 K); 0.00023 ± 1.2e-05 kPa and 0.000224 ± 1.1e-05 kPa and 0.00022 ± 1.1e-05 kPa (287.12 K); 0.000278 ± 1.4e-05 kPa and 0.000282 ± 1.4e-05 kPa and 0.000286 ± 1.4e-05 kPa (289.13 K); 0.000362 ± 1.8e-05 kPa and 0.000355 ± 1.8e-05 kPa (291.14 K); 0.000468 ± 2.3e-05 kPa and 0.000459 ± 2.3e-05 kPa and 0.000451 ± 2.3e-05 kPa (293.13 K). For the same compound, the “vapor or sublimation pressure” value runs as follows: (295.18 K) 0.000579 ± 2.9e-05 kPa and 0.000571 ± 2.9e-05 kPa and 0.000558 ± 2.8e-05 kPa; (297.15 K) 0.000732 ± 3.7e-05 kPa and 0.000734 ± 3.7e-05 kPa; (299.16 K) 0.000948 ± 4.7e-05 kPa and 0.000927 ± 4.6e-05 kPa and 0.000925 ± 4.6e-05 kPa.

Regarding `c1ccc(-n2cccc2)cc1` [1-phenylpyrrole], the “vapor or sublimation pressure” value reads like this: (271.14 K) 0.000151 ± 8e-06 kPa and 0.000147 ± 7e-06 kPa and 0.000143 ± 7e-06 kPa; (273.15 K) 0.000191 ± 1e-05 kPa and 0.00019 ± 1e-05 kPa and 0.000185 ± 9e-06 kPa; (275.17 K) 0.000255 ± 1.3e-05 kPa and 0.000247 ± 1.2e-05 kPa and 0.000241 ± 1.2e-05 kPa; (277.06 K) 0.000336 ± 1.7e-05 kPa and 0.000311 ± 1.6e-05 kPa and 0.00033 ± 1.7e-05 kPa; (279.15 K) 0.000426 ± 2.1e-05 kPa and 0.000414 ± 2.1e-05 kPa and 0.000397 ± 2e-05 kPa; (281.11 K) 0.000537 ± 2.7e-05 kPa and 0.000525 ± 2.6e-05 kPa. The “vapor or sublimation pressure” value runs as follows: (283.19 K) 0.000682 ± 3.4e-05 kPa and 0.000678 ± 3.4e-05 kPa and 0.000651 ± 3.3e-05 kPa; (285.24 K) 0.000905 ± 4.5e-05 kPa and 0.000887 ± 4.4e-05 kPa; (287.13 K) 0.001123 ± 0.00012 kPa and 0.001111 ± 0.00011 kPa and 0.00106 ± 0.00011 kPa.

The record behind these values is the NIST ThermoML archive (doi:10.1016/j.jct.2010.01.009).
